Measurements from patent US8637499B2, “Benzoxazepines as inhibitors of PI3K/mTOR and methods of their use and manufacture” (Exelixis, Inc., priority 2009, dated 2014).
Several values for one entry are separate records, joined by “and”; a condition that tells them apart may be missing. Equal values may be shown once.

What was measured:
PI3Kα = PI3Kα (Homo sapiens, UniProt P42336); assay: PI3K Biochemical Assays (ATP consumption, luciferase-luciferin chemiluminescence); conditions: PI3Kα 1.5 nM, ATP 1 μM, PIP2 10 μM; percent of ATP consumed
Sequence of PI3Kα (P42336 whole entry): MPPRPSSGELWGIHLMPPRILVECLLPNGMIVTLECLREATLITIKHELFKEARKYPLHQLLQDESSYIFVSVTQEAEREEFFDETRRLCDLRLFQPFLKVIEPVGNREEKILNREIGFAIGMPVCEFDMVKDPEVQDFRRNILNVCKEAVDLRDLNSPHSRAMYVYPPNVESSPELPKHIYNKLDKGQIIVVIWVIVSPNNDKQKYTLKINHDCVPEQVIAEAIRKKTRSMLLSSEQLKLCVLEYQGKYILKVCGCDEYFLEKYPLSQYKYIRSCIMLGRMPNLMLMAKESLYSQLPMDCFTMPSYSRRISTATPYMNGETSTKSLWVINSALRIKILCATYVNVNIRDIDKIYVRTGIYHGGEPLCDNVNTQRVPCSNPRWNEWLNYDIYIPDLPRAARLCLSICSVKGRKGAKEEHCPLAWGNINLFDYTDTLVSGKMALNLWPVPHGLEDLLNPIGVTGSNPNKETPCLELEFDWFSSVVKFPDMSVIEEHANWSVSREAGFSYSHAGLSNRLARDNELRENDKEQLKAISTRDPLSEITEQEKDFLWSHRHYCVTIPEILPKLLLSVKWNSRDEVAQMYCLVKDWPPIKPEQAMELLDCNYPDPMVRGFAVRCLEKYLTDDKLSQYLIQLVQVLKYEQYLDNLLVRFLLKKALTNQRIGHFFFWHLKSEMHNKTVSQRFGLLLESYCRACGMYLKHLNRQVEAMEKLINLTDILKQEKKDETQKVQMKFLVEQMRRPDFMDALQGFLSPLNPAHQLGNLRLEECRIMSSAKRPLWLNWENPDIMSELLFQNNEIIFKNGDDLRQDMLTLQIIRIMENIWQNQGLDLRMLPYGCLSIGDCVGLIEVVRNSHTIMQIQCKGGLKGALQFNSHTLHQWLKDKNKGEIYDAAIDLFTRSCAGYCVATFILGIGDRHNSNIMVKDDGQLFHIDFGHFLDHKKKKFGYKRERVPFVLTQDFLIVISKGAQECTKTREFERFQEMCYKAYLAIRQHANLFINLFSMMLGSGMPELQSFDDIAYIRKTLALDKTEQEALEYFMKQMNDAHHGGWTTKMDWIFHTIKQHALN
Sequence of PI3Kα (P27986 whole entry partner): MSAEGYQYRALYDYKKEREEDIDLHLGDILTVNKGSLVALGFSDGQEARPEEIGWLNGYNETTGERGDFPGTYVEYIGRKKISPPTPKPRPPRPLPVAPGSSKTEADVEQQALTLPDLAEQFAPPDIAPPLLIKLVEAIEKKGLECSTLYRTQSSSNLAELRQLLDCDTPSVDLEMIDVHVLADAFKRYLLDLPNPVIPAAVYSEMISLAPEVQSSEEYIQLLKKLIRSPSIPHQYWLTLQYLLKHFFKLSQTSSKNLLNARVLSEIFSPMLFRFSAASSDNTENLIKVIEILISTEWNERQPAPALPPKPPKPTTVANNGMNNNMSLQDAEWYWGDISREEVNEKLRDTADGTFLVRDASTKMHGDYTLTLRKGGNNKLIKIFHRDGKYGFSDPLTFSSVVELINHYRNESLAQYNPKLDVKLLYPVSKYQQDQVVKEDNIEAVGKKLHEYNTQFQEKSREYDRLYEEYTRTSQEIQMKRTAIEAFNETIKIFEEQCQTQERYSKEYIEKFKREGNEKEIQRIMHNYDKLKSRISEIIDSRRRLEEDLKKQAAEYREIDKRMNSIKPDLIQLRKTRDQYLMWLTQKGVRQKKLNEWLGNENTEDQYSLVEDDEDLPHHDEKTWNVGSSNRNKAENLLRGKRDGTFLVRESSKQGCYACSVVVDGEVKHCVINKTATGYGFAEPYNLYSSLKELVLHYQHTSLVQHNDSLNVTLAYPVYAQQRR
Experimental: PI3Kα activity is measured as the percent of ATP consumed following the kinase reaction using luciferase-luciferin-coupled chemiluminescence. Reactions were conducted in 384-well white, medium binding microtiter plates (Greiner). Kinase reactions were initiated by combining test compounds, ATP, substrate (PIP2), and kinase in a 20 μL volume in a buffer solution. The standard PI3Kalpha assay buffer is composed 50 mM Tris, pH 7.5, 1 mM EGTA, 10 mM MgCl2, 1 mM DTT and 0.03% CHAPS. The standard assay concentrations for enzyme, ATP, and substrate are 1.5 nM, 1 μM, and 10 μM, respectively. The reaction mixture was incubated at ambient temperature for approximately 2 h. Following the kinase reaction, a 10 μL aliquot of luciferase-luciferin mix (Promega Kinase-Glo) was added and the chemiluminescence signal measured using a Victor2 plate reader (Perkin Elmer). Total ATP consumption was limited to 40-60% and IC50 values of control compounds correlate well with literature references. Substituting PI3Kα with PI3KIβ, […], or […], the inhibitory activity of the compounds for the other isoforms of I3K were measured.

mTORC1 (mTOR/GbL/Raptor) = mTORC1 (mTOR/GbL/Raptor) (Homo sapiens, UniProt P42345); assay: mTOR/GbL/Raptor (mTORC1) ELISA Assay; type: biochemical; conditions: 0.2 nM mTORC1, 10 μM ATP, 50 nM NHis-tagged 4E-BP1; phosphorylation of 4E-BP1; read-out: IC50
Experimental: mTOR/GbL/Raptor (mTORC1) ELISA Assay
The measurement of mTORC1 enzyme activity was performed in an ELISA assay format following the phosphorylation of 4E-BP1 protein. All experiments were performed in the 384-well format. Generally, 0.5 μL DMSO containing varying concentrations of the test compound was mixed with 15 μL enzyme solution. Kinase reactions were initiated with the addition of 15 μL of substrates-containing solution. The assay conditions were as follows; 0.2 nM mTORC1, 10 μM ATP and 50 nM NHis-tagged 4E-BP1 in 20 mM Hepes, pH 7.2, 1 mM DTT, 50 mM NaCl, 10 mM MnCl2, 0.02 mg/mL BSA, 0.01% CHAPS, 50 mM β-glycerophosphate. Following an incubation of 120 minutes at ambient temperature, 20 μL of the reaction volume was transferred to a Ni-Chelate-coated 384-well plate. The binding step of the 4E-BP1 protein proceeded for 60 minutes, followed by washing 4 times each with 50 μL of Tris-buffered saline solution (TBS). Anti-phospho-4E-BP1 rabbit-IgG (20 μL, 1:5000) in 5% BSA-TBST (0.2% Tween-20 in TBS) was added and further incubated for 60 minutes. Incubation with a secondary HRP-tagged anti-IgG was similarly performed after washing off the primary antibody (4 washes of 50 μL). Following the final wash step with TBST, 20 μL of SuperSignal ELISA Femto (Pierce Biotechnology) was added and the luminescence measured using an EnVision plate reader.

| Compound | IC50 (PI3Kα) | IC50 (mTORC1 (mTOR/GbL/Raptor)) |
| --- | --- | --- |
| CC(=O)c1ccc(N2CCN(C(=O)N3CCOc4ccc(-c5ccc6nc(C)[nH]c6c5)cc4C3)CC2)cc1 [Compound 169, 1-[4-(4-{[7-(2-methyl-1H-benzimidazol-6-yl)-2,3-dihydro-1,4-benzoxazepin-4(5H)-yl]carbonyl}piperazin-1-yl)phenyl]ethanone] | 500 to 1000 nM |  |
| Cc1nc2ccc(-c3ccc4c(c3)CN(C(=O)N3CCN(C(=O)c5ccco5)CC3)CCO4)cc2[nH]1 [Compound 158, 4-{[4-(furan-2-ylcarbonyl)piperazin-1-yl]carbonyl}-7-(2-methyl-1H-benzimidazol-6-yl)-2,3,4,5-tetrahydro-1,4-benzoxazepine] | 1000 to 3000 nM |  |
| Cc1nc2ccc(-c3ccc4c(c3)CN(C(=O)N3CCC(O)(C(F)(F)F)CC3c3ccc(F)c(F)c3)CCO4)cc2[nH]1 (centres unmarked) [Compound 119, 2-(3,4-difluorophenyl)-1-{[7-(2-methyl-1H-benzimidazol-6-yl)-2,3-dihydro-1,4-benzoxazepin-4(5H)-yl]carbonyl}-4-(trifluoromethyl)piperidin-4-ol] | 1000 to 3000 nM |  |
| Cc1nc2ccc(-c3ccc4c(c3)CN(C(=O)N3CC[C@H](O)C3)CCO4)cc2[nH]1 [Compound 82, (3S)-1-{[7-(2-methyl-1H-benzimidazol-6-yl)-2,3-dihydro-1,4-benzoxazepin-4(5H)-yl]carbonyl}pyrrolidin-3-ol] | 1000 to 3000 nM |  |
| Cc1nc2ccc(-c3ccc4c(c3)CN(C(=O)N3CC[C@@H](O)C3)CCO4)cc2[nH]1 [Compound 78, (3R)-1-{[7-(2-methyl-1H-benzimidazol-6-yl)-2,3-dihydro-1,4-benzoxazepin-4(5H)-yl]carbonyl}pyrrolidin-3-ol] | 500 to 1000 nM |  |
| Cc1nc2ccc(-c3ccc4c(c3)CN(C(=O)N3CCCCC3c3cc(C(F)(F)F)cc(C(F)(F)F)c3)CCO4)cc2[nH]1 (centres unmarked) [Compound 115, 4-({2-[3,5-bis(trifluoromethyl)phenyl]piperidin-1-yl}carbonyl)-7-(2-methyl-1H-benzimidazol-6-yl)-2,3,4,5-tetrahydro-1,4-benzoxazepine] | 1000 to 3000 nM |  |
| CC1CCN(C(=O)N2CCOc3ccc(-c4cc(NCc5ccccc5)[nH]n4)cc3C2)CC1 [Compound 9, 3-{4-[(4-methylpiperidin-1-yl)carbonyl]-2,3,4,5-tetrahydro-1,4-benzoxazepin-7-yl}-N-(phenylmethyl)-1H-pyrazol-5-amine] | 1000 to 3000 nM |  |
| Cc1nc2ccc(-c3ccc4c(c3)CN(C(=O)N3CCN(C)CC3c3ccccc3)CCO4)cc2[nH]1 (centres unmarked) [Compound 144, 7-(2-methyl-1H-benzimidazol-6-yl)-4-[(4-methyl-2-phenylpiperazin-1-yl)carbonyl]-2,3,4,5-tetrahydro-1,4-benzoxazepine] | 1000 to 3000 nM |  |
| Cc1nc2ccc(-c3ccc4c(c3)CN(C(=O)N3CCCC3)CCO4)cc2[nH]1 [Compound 87, 7-(2-methyl-1H-benzimidazol-6-yl)-4-(pyrrolidin-1-ylcarbonyl)-2,3,4,5-tetrahydro-1,4-benzoxazepine] | 500 to 1000 nM |  |
| Cc1nc2ccc(-c3ccc4c(c3)CN(C(=O)N3CC[S+]([O-])CC3)CCO4)cc2[nH]1 [Compound 101, 7-(2-methyl-1H-benzimidazol-6-yl)-4-[(1-oxidothiomorpholin-4-yl)carbonyl]-2,3,4,5-tetrahydro-1,4-benzoxazepine] | 1000 to 3000 nM |  |
| Cc1nc2ccc(-c3ccc4c(c3)CN(C(=O)N3CCC(C5CCNCC5)CC3)CCO4)cc2[nH]1 [Compound 71, 1-{[7-(2-methyl-1H-benzimidazol-6-yl)-2,3-dihydro-1,4-benzoxazepin-4(5H)-yl]carbonyl}-4,4-bipiperidine] | 200 to 500 nM and 500 to 1000 nM |  |
| CCOC(=O)CN(Cc1ccccc1)C(=O)N1CCOc2ccc(-c3ccc4nc(C)[nH]c4c3)cc2C1 [Compound 151, ethyl N-{[7-(2-methyl-1H-benzimidazol-6-yl)-2,3-dihydro-1,4-benzoxazepin-4(5H)-yl]carbonyl}-N-(phenylmethyl)glycinate] | 1000 to 3000 nM |  |

The remaining lines, values ahead:

| IC50 (PI3Kα) | IC50 (mTORC1 (mTOR/GbL/Raptor)) | Compound |
| --- | --- | --- |
| ≤ 75 nM | 50 to 250 nM | COC(=O)Nc1nc2ncc(-c3ccc4c(c3)CN(C(=O)N3CCC(=O)CC3c3ccc(F)c(F)c3)CCO4)cc2[nH]1 (centres unmarked) [Compound 39, methyl [6-(4-{[2-(3,4-difluorophenyl)-4-oxopiperidin-1-yl]carbonyl}-2,3,4,5-tetrahydro-1,4-benzoxazepin-7-yl)-1H-imidazo[4,5-b]pyridin-2-yl]carbamate] |
| ≤ 75 nM | 50 to 250 nM | COC(=O)Nc1nc2ccc(-c3ccc4c(c3)CN(C(=O)N3CCC(=O)CC3c3ccc(F)c(F)c3)CCO4)cc2[nH]1 (centres unmarked) [Compound 16, methyl [6-(4-{[2-(3,4-difluorophenyl)-4-oxopiperidin-1-yl]carbonyl}-2,3,4,5-tetrahydro-1,4-benzoxazepin-7-yl)-1H-benzimidazol-2-yl]carbamate] |
| 200 to 500 nM | 50 to 250 nM | CCN(Cc1ccccc1)C(=O)N1CCOc2ccc(-c3ccc4nc(C)[nH]c4c3)cc2C1 [Compound 177, N-ethyl-7-(2-methyl-1H-benzimidazol-6-yl)-N-(phenylmethyl)-2,3-dihydro-1,4-benzoxazepine-4(5H)-carboxamide] |
| 75 to 200 nM | 50 to 250 nM | COC(=O)Nc1nc2ncc(-c3ccc4c(c3)CN(C(=O)N3CCC(O)(CF)CC3)CCO4)cc2[nH]1 [Compound 38, methyl [6-(4-{[4-(fluoromethyl)-4-hydroxypiperidin-1-yl]carbonyl}-2,3,4,5-tetrahydro-1,4-benzoxazepin-7-yl)-1H-imidazo[4,5-b]pyridin-2-yl]carbamate] |
| 500 to 1000 nM | 250 to 700 nM | Cc1nc2ccc(-c3ccc4c(c3)CN(C(=O)N3CCCCCC3)CCO4)cc2[nH]1 [Compound 89, 4-(azepan-1-ylcarbonyl)-7-(2-methyl-1H-benzimidazol-6-yl)-2,3,4,5-tetrahydro-1,4-benzoxazepine] |
| 75 to 200 nM | ≤ 50 nM | Cc1nc2ccc(-c3ccc4c(c3)CN(C(=O)N3CCCCC3c3cccc(Cl)c3)CCO4)cc2[nH]1 (centres unmarked) [Compound 124, 4-{[2-(3-chlorophenyl)piperidin-1-yl]carbonyl}-7-(2-methyl-1H-benzimidazol-6-yl)-2,3,4,5-tetrahydro-1,4-benzoxazepine] |
| 200 to 500 nM | 250 to 700 nM | Cc1nc2ccc(-c3ccc4c(c3)CN(C(=O)N3CC5CN(c6ccccc6)CC5C3)CCO4)cc2[nH]1 (centres unmarked) [Compound 110, 7-(2-methyl-1H-benzimidazol-6-yl)-4-[(5-phenylhexahydropyrrolo[3,4-c]pyrrol-2(1H)-yl)carbonyl]-2,3,4,5-tetrahydro-1,4-benzoxazepine] |
| 500 to 1000 nM |  | Cc1nc2ccc(-c3ccc4c(c3)CN(C(=O)N3CCOCC3)CCO4)cc2[nH]1 [Compound 132, 7-(2-methyl-1H-benzimidazol-6-yl)-4-(morpholin-4-ylcarbonyl)-2,3,4,5-tetrahydro-1,4-benzoxazepine] |
| 200 to 500 nM |  | Cc1nc2ccc(-c3ccc4c(c3)CN(C(=O)N3CCN(c5ccc([N+](=O)[O-])cc5)CC3)CCO4)cc2[nH]1 [Compound 168, 7-(2-methyl-1H-benzimidazol-6-yl)-4-{[4-(4-nitrophenyl)piperazin-1-yl]carbonyl}-2,3,4,5-tetrahydro-1,4-benzoxazepine] |
| 200 to 500 nM |  | Cc1nc2ccc(-c3ccc4c(c3)CN(C(=O)N3[C@@H]5CC[C@H]3C[C@@H](CO)C5)CCO4)cc2[nH]1 [Compound 112, (8-{[7-(2-methyl-1H-benzimidazol-6-yl)-2,3-dihydro-1,4-benzoxazepin-4(5H)-yl]carbonyl}-8-azabicyclo[3.2.1]oct-3-(endo)-yl)methanol] |
